Laboratory results: patent US8975398B2, “NAMPT inhibitors” (AbbVie Inc., priority 2012, dated 2015)
pIC50: −log10 of the molar value.

Assays:
[1] = biological target: NAMPT (human, recombinant, C-terminally His-tagged) (Homo sapiens, UniProt P43490); assay: Time-Resolved Fluorescence Resonance Energy Transfer (TR-FRET) Binding Assay of NAMPT; conditions: 6.8 nM NAMPT, 200 nM probe, equilibrated 3 hours, absence of substrates
Protocol: Determination of the utility of compounds having Formula (I) as binders to and inhibitors of NAMPT was performed using Time-Resolved Fluorescence Resonance Energy Transfer (TR-FRET) binding assays.
Time-Resolved Fluorescence Resonance Energy Transfer (TR-FRET) Binding Assay of NAMPT
Test compounds were serially diluted (typically 11 half log dilutions) in neat DMSO to 50× final concentrations prior to dilution with assay buffer (50 mM HEPES (NaOH), pH 7.5, 100 mM NaCl, 10 mM MgCl2, 1 mM DTT, 1% Glycerol) to 3× and 6% DMSO. Six μL were transferred to 384-well low-volume plates (Owens Corning #3673). To this, 12 μL of a 1.5× solution containing enzyme, probe and antibody were added. Final concentrations in the 18 μL, reactions were 1× assay buffer, 2% DMSO, 6.8 nM NAMPT (human, recombinant, C-terminally His-tagged), 200 nM probe (a potent nicotinamide-competitive inhibitor conjugated to Oregon Green 488) and 1 nM Tb-anti-His antibody (Invitrogen #PV5895). Reactions were equilibrated at room temperature for 3 hours prior to reading on an Envision multi-label plate reader (Perkin Elmer; Ex=337 nm, Em=520 and 495 nm). Time-resolved FRET ratios (Em520/Em495) were normalized to controls, plotted as a function of compound concentration and fit with the four-parameter logistic equation to determine IC50s.

NAMPT = NAMPT (Homo sapiens, UniProt P43490); assay: Time-Resolved Fluorescence Resonance Energy Transfer (TR-FRET) Binding Assay of NAMPT with PRPP; conditions: 2 nM NAMPT, 2 nM probe, 200 uM PRPP and 2.5 mM ATP, equilibrated 16 hours
Protocol: Time-Resolved Fluorescence Resonance Energy Transfer (TR-FRET) Binding Assay of NAMPT with PRPP
Compound handling and data processing were identical to the assay in the absence of substrates (above). Final concentrations were 1× assay buffer, 2% DMSO, 2 nM NAMPT, 2 nM probe, 1 nM Tb-anti-His antibody (Invitrogen #PV5895), 200 uM PRPP and 2.5 mM ATP. Reactions were equilibrated for 16 hours prior to measurement to allow for potential enzymatic modification of test compounds.

Chain of NAMPT (P43490 whole entry): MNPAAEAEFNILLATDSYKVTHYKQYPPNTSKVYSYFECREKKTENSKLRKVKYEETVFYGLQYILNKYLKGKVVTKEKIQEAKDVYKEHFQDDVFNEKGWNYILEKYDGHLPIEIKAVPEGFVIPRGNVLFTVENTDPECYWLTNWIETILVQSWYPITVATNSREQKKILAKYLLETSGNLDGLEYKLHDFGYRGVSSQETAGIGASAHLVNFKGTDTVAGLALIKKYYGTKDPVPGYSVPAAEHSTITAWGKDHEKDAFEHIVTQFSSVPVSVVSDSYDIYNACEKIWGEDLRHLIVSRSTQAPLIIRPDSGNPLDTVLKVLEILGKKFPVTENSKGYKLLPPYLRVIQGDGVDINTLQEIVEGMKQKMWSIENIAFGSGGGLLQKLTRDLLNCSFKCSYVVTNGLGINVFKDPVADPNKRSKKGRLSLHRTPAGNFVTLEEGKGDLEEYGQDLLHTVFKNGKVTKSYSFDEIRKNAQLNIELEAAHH
Chain of NAMPT (human, recombinant, C-terminally His-tagged) (P43490 whole entry): as above

Row | pIC50 [1] | pIC50 (NAMPT) | SMILES
1 | 7.29 | 9.16 | O=C(Nc1ccc(OC2CCN(C(=O)C3CCCC3)CC2)cc1)C1CN(c2cccnc2)C1 [Example 52, N-(4-{[1-(cyclopentylcarbonyl)piperidin-4-yl]oxy}phenyl)-1-(pyridin-3-yl)azetidine-3-carboxamide]
2 | 7.59 | 9.16 | CC1(C(=O)N2CCC(Oc3ccc(NC(=O)C4CN(c5cccnc5)C4)cc3)CC2)CCCCC1 [Example 53, N-[4-({1-[(1-methylcyclohexyl)carbonyl]piperidin-4-yl}oxy)phenyl]-1-(pyridin-3-yl)azetidine-3-carboxamide]
3 | 7.14 | 9.09 | O=C(Nc1ccc(OC2CCN(C(=O)c3ccoc3)CC2)cc1)C1CN(c2cccnc2)C1 [Example 54, N-(4-{[1-(furan-3-ylcarbonyl)piperidin-4-yl]oxy}phenyl)-1-(pyridin-3-yl)azetidine-3-carboxamide]
4 | 6.77 | 8.65 | O=C(Nc1ccc(OC2CCN(C(=O)CC(F)(F)F)CC2)cc1)C1CN(c2cccnc2)C1 [Example 55, 1-(pyridin-3-yl)-N-(4-{[1-(3,3,3-trifluoropropanoyl)piperidin-4-yl]oxy}phenyl)azetidine-3-carboxamide]
5 | 6.44 | 9.09 | CC(=O)N1CCC(Oc2ccc(NC(=O)C3CN(c4cccnc4)C3)cc2)CC1 [Example 56, N-{4-[(1-acetylpiperidin-4-yl)oxy]phenyl}-1-(pyridin-3-yl)azetidine-3-carboxamide]
6 | 6.74 | 8.97 | COCC(=O)N1CCC(Oc2ccc(NC(=O)C3CN(c4cccnc4)C3)cc2)CC1 [Example 57, N-(4-{[1-(methoxyacetyl)piperidin-4-yl]oxy}phenyl)-1-(pyridin-3-yl)azetidine-3-carboxamide]
7 | 7.23 | 9.17 | O=C(Nc1ccc(OC2CCN(C(=O)c3ccsc3)CC2)cc1)C1CN(c2cccnc2)C1 [Example 58, 1-(pyridin-3-yl)-N-(4-{[1-(thiophen-3-ylcarbonyl)piperidin-4-yl]oxy}phenyl)azetidine-3-carboxamide]
8 | 7.55 | 9.22 | Cc1ccsc1C(=O)N1CCC(Oc2ccc(NC(=O)C3CN(c4cccnc4)C3)cc2)CC1 [Example 59, N-[4-({1-[(3-methylthiophen-2-yl)carbonyl]piperidin-4-yl}oxy)phenyl]-1-(pyridin-3-yl)azetidine-3-carboxamide]
9 | 6.82 | 9.00 | O=C(Nc1ccc(OC2CCN(C(=O)CN3CCOCC3)CC2)cc1)C1CN(c2cccnc2)C1 [Example 60, N-(4-{[1-(morpholin-4-ylacetyl)piperidin-4-yl]oxy}phenyl)-1-(pyridin-3-yl)azetidine-3-carboxamide]
10 | 7.47 | 9.17 | O=C(Nc1ccc(OC2CCN(C(=O)c3cccs3)CC2)cc1)C1CN(c2cccnc2)C1 [Example 61, 1-(pyridin-3-yl)-N-(4-{[1-(thiophen-2-ylcarbonyl)piperidin-4-yl]oxy}phenyl)azetidine-3-carboxamide]
11 | 7.38 | 9.18 | Cc1ccc(C(=O)N2CCC(Oc3ccc(NC(=O)C4CN(c5cccnc5)C4)cc3)CC2)s1 [Example 62, N-[4-({1-[(5-methylthiophen-2-yl)carbonyl]piperidin-4-yl}oxy)phenyl]-1-(pyridin-3-yl)azetidine-3-carboxamide]
12 | 7.28 | 9.29 | O=C(Nc1ccc(OC2CCN(C(=O)c3ccco3)CC2)cc1)C1CN(c2cccnc2)C1 [Example 63, N-(4-{[1-(furan-2-ylcarbonyl)piperidin-4-yl]oxy}phenyl)-1-(pyridin-3-yl)azetidine-3-carboxamide]
13 | 7.26 | 9.03 | Cn1cccc1C(=O)N1CCC(Oc2ccc(NC(=O)C3CN(c4cccnc4)C3)cc2)CC1 [Example 64, N-[4-({1-[(1-methyl-1H-pyrrol-2-yl)carbonyl]piperidin-4-yl}oxy)phenyl]-1-(pyridin-3-yl)azetidine-3-carboxamide]
14 | 6.92 | 9.15 | CCC(=O)N1CCC(Oc2ccc(NC(=O)C3CN(c4cccnc4)C3)cc2)CC1 [Example 65, N-{4-[(1-propanoylpiperidin-4-yl)oxy]phenyl}-1-(pyridin-3-yl)azetidine-3-carboxamide]
15 | 7.25 | 9.27 | CC1(C(=O)N2CCC(Oc3ccc(NC(=O)C4CN(c5cccnc5)C4)cc3)CC2)CC1 [Example 66, N-[4-({1-[(1-methylcyclopropyl)carbonyl]piperidin-4-yl}oxy)phenyl]-1-(pyridin-3-yl)azetidine-3-carboxamide]
16 | 6.34 | 9.30 | CN(C)CCC(=O)N1CCC(Oc2ccc(NC(=O)C3CN(c4cccnc4)C3)cc2)CC1 [Example 67, N-(4-{[1-(N,N-dimethyl-beta-alanyl)piperidin-4-yl]oxy}phenyl)-1-(pyridin-3-yl)azetidine-3-carboxamide]
17 | 7.09 | 9.24 | O=C(Nc1ccc(OC2CCN(C(=O)c3nccs3)CC2)cc1)C1CN(c2cccnc2)C1 [Example 68, 1-(pyridin-3-yl)-N-(4-{[1-(1,3-thiazol-2-ylcarbonyl)piperidin-4-yl]oxy}phenyl)azetidine-3-carboxamide]
18 | 7.16 | 9.04 | O=C(Nc1ccc(OC2CCN(C(=O)CC3CCCC3)CC2)cc1)C1CN(c2cccnc2)C1 [Example 69, N-(4-{[1-(cyclopentylacetyl)piperidin-4-yl]oxy}phenyl)-1-(pyridin-3-yl)azetidine-3-carboxamide]
19 | 7.45 | 9.13 | CC(C)C(C)C(=O)N1CCC(Oc2ccc(NC(=O)C3CN(c4cccnc4)C3)cc2)CC1 (stereo not shown) [Example 70, N-(4-{[1-(2,3-dimethylbutanoyl)piperidin-4-yl]oxy}phenyl)-1-(pyridin-3-yl)azetidine-3-carboxamide]
20 | 7.39 | 7.84 | Cc1ncccc1N1CC(C(=O)Nc2ccc(C3CCN(C(=O)C(C)(C)O)CC3)cc2)C1 [Example 71, N-{4-[1-(2-hydroxy-2-methylpropanoyl)piperidin-4-yl]phenyl}-1-(2-methylpyridin-3-yl)azetidine-3-carboxamide]
21 | 8.18 | 8.13 | Cc1ccncc1N1CC(C(=O)Nc2ccc(C3CCN(C(=O)C(C)(C)O)CC3)cc2)C1 [Example 72, N-{4-[1-(2-hydroxy-2-methylpropanoyl)piperidin-4-yl]phenyl}-1-(4-methylpyridin-3-yl)azetidine-3-carboxamide]
22 | 6.65 | 7.15 | COc1ncccc1N1CC(C(=O)Nc2ccc(C3CCN(C(=O)C(C)(C)O)CC3)cc2)C1 [Example 73, N-{4-[1-(2-hydroxy-2-methylpropanoyl)piperidin-4-yl]phenyl}-1-(2-methoxypyridin-3-yl)azetidine-3-carboxamide]
23 | 6.04 | 9.18 | O=C(Nc1ccc(OC2CCN(CC3CC3)CC2)cc1)C1CN(c2cccnc2)C1 [Example 74, N-(4-{[1-(cyclopropylmethyl)piperidin-4-yl]oxy}phenyl)-1-(pyridin-3-yl)azetidine-3-carboxamide]
24 | 5.87 | 9.14 | CCCC(C)CN1CCC(Oc2ccc(NC(=O)C3CN(c4cccnc4)C3)cc2)CC1 (stereo not shown) [Example 75, N-(4-{[1-(2-methylpentyl)piperidin-4-yl]oxy}phenyl)-1-(pyridin-3-yl)azetidine-3-carboxamide]
25 | 5.72 | 9.36 | CC(C)CN1CCC(Oc2ccc(NC(=O)C3CN(c4cccnc4)C3)cc2)CC1 [Example 76, N-(4-{[1-(2-methylpropyl)piperidin-4-yl]oxy}phenyl)-1-(pyridin-3-yl)azetidine-3-carboxamide]
26 | 5.52 | 9.08 | CC(C)CCN1CCC(Oc2ccc(NC(=O)C3CN(c4cccnc4)C3)cc2)CC1 [Example 77, N-(4-{[1-(3-methylbutyl)piperidin-4-yl]oxy}phenyl)-1-(pyridin-3-yl)azetidine-3-carboxamide]
27 | 6.58 | 9.20 | CCC(CC)CN1CCC(Oc2ccc(NC(=O)C3CN(c4cccnc4)C3)cc2)CC1 [Example 78, N-(4-{[1-(2-ethylbutyl)piperidin-4-yl]oxy}phenyl)-1-(pyridin-3-yl)azetidine-3-carboxamide]
28 | 5.57 | 9.08 | CC(C)(C)CN1CCC(Oc2ccc(NC(=O)C3CN(c4cccnc4)C3)cc2)CC1 [Example 79, N-(4-{[1-(2,2-dimethylpropyl)piperidin-4-yl]oxy}phenyl)-1-(pyridin-3-yl)azetidine-3-carboxamide]
29 | 5.80 | 9.16 | CCC(C)CN1CCC(Oc2ccc(NC(=O)C3CN(c4cccnc4)C3)cc2)CC1 (stereo not shown) [Example 80, N-(4-{[1-(2-methylbutyl)piperidin-4-yl]oxy}phenyl)-1-(pyridin-3-yl)azetidine-3-carboxamide]
